Measurements from patent EP2361611A2, “Aqueous sustained-release drug delivery system for highly water-soluble electrolytic drugs” (Upm Pharmaceuticals, Inc., priority 2005, dated 2006).

Experiment: Equilibrium binding study in a two-compartment dialysis cell, HPLC
Conditions: sodium alginate 0.877 g/L, 25°C
[1] = total drug concentration 4.97 M x 10^4
[2] = total drug concentration 5.47 M x 10^4
[3] = total drug concentration 5.96 M x 10^4
[4] = total drug concentration 6.96 M x 10^4
[5] = total drug concentration 7.95 M x 10^4
[6] = total drug concentration 8.95 M x 10^4
[7] = total drug concentration 9.94 M x 10^4
[8] = total drug concentration 14.91 M x 10^4
[9] = total drug concentration 19.88 M x 10^4
[10] = total drug concentration 24.86 M x 10^4
[11] = total drug concentration 30.40 M x 10^4
[12] = total drug concentration 41.20 M x 10^4
[13] = total drug concentration 50.70 M x 10^4

Experimental: The studies were performed with a two compartment plexiglass dialysis cell (Hollenbeck laboratory) and having a cellulose membrane (molecular weight cutoff of 6000 Daltons) Bel-Art Products (Pequannock, NJ) placed between the two cell compartments. […] The dialysis cell was shaken at 80 RPM in a thermostatic water bath at 25°C until equilibrium was reached (30 h). The solution was removed from the drug compartment and the concentrations of free drug and polymer-bound drug measured by high performance liquid chromatography ("HPLC").

CC(C)NCC(O)COc1cccc2ccccc12 (stereo not drawn) [propranolol]
Amount bound per gram of polymer [1]: 4.59 M x 10^4 | Bound drug concentration [1]: 4.03 M x 10^4 | Free drug concentration [1]: 0.94 M x 10^4 | r/(Df) [1]: 4.88 L/g | Amount bound per gram of polymer [2]: 4.84 M x 10^4 | Bound drug concentration [2]: 4.25 M x 10^4 | Free drug concentration [2]: 1.22 M x 10^4 | r/(Df) [2]: 3.97 L/g | Amount bound per gram of polymer [3]: 5.16 M x 10^4 | Bound drug concentration [3]: 4.53 M x 10^4 | Free drug concentration [3]: 1.43 M x 10^4 | r/(Df) [3]: 3.60 L/g | Amount bound per gram of polymer [4]: 5.86 M x 10^4 | Bound drug concentration [4]: 5.14 M x 10^4 | Free drug concentration [4]: 1.82 M x 10^4 | r/(Df) [4]: 3.21 L/g | Amount bound per gram of polymer [5]: 6.23 M x 10^4 | Bound drug concentration [5]: 5.46 M x 10^4 | Free drug concentration [5]: 2.49 M x 10^4 | r/(Df) [5]: 2.49 L/g | Amount bound per gram of polymer [6]: 6.12 M x 10^4 | Bound drug concentration [6]: 5.37 M x 10^4 | Free drug concentration [6]: 3.57 M x 10^4 | r/(Df) [6]: 1.71 L/g | Amount bound per gram of polymer [7]: 6.66 M x 10^4 | Bound drug concentration [7]: 5.83 M x 10^4 | Free drug concentration [7]: 4.10 M x 10^4 | r/(Df) [7]: 1.62 L/g | Amount bound per gram of polymer [8]: 8.61 M x 10^4 | Free drug concentration [8]: 7.36 M x 10^4 | r/(Df) [8]: 1.17 L/g | Amount bound per gram of polymer [9]: 9.81 M x 10^4 | Bound drug concentration [9]: 8.60 M x 10^4 | Free drug concentration [9]: 11.28 M x 10^4 | r/(Df) [9]: 0.87 L/g | Amount bound per gram of polymer [10]: 10.73 M x 10^4 | Bound drug concentration [10]: 9.41 M x 10^4 | Free drug concentration [10]: 15.45 M x 10^4 | r/(Df) [10]: 0.60 L/g | Amount bound per gram of polymer [11]: 11.49 M x 10^4 | Bound drug concentration [11]: 10.08 M x 10^4 | Free drug concentration [11]: 20.32 M x 10^4 | r/(Df) [11]: 0.57 L/g | Amount bound per gram of polymer [12]: 12.37 M x 10^4 | Bound drug concentration [12]: 10.84 M x 10^4 | Free drug concentration [12]: 30.35 M x 10^4 | r/(Df) [12]: 0.41 L/g | Amount bound per gram of polymer [13]: 12.93 M x 10^4 | Bound drug concentration [13]: 11.34 M x 10^4 | Free drug concentration [13]: 39.36 M x 10^4 | r/(Df) [13]: 0.33 L/g
